The results in this text go back to patent publication EP2272817A1, “PAI-1 INHIBITOR” (Institute of Medicinal Molecular Design, Inc., priority 2008, dated 2009).

SMILES strings stand for the structures.

Chain of recombinant human PAI-1 (P05121 24-402): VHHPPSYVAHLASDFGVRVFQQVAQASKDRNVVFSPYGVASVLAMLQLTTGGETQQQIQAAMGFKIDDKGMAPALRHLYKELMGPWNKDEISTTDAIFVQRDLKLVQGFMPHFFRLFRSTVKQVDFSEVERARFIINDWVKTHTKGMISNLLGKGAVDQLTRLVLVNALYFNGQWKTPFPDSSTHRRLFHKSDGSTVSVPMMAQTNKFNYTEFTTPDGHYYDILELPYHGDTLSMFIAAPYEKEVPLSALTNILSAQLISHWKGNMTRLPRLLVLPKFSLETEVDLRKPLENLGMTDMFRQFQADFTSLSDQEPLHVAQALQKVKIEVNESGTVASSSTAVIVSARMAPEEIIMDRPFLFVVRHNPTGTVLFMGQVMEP

This assay has as its target recombinant human PAI-1 (Homo sapiens, UniProt P05121). Kind of assay: Test Example 2: Human PAI-1 Inhibitory Activity (pH 7.4 HEPES buffer, 10 minutes incubation with two-chain tPA). Format: biochemical. Also on record: purchased Molecular Innovations, Inc. The note with it: read-out: Inhibition Rate of PAI-1 Activity (%). The procedure:
0.1 M HEPES, 0.1 M NaCl. 1 mM EDTA. 0.1 % Polyethylene glycol 8,000 (Hampton Research Corporation),
2 mM Dimethyldecylphoshine oxide [Apo-10] (Fluka Corporation)
Turning to `CC(C)(C)c1cccc(Oc2cc(-c3ccc(OC(F)(F)F)cc3)ccc2OCC(=O)O)c1` [Compound 436], the inhibition at 0.1 µM is 3%, the inhibition at 0.3 µM came to 19%, the inhibition at 1 µM came to 63% and the inhibition at 3 µM was more than 99%.
Take `CC(C)(C)c1cccc(Oc2ccc(-c3ccc(OC(F)(F)F)cc3)cc2/C=C/C(=O)O)c1` [Compound 437]: the inhibition at 0.1 µM came to 0%, the inhibition at 0.3 µM worked out at 12%, the inhibition at 1 µM came to 67% and the inhibition at 3 µM amounted to 98%.
For `CC(C)(C)c1cccc(Oc2ccc(-c3ccc(OC(F)(F)F)cc3)cc2CCC(=O)O)c1` [Compound 438], in that order: 13%, 11%, 50% and more than 99%.
For `CC(C)(C)c1cccc(Oc2ccc(-c3ccc(OC(F)(F)F)cc3)cc2OCC(=O)O)c1` [Compound 439], the inhibition at 0.1 µM was 12%, the inhibition at 0.3 µM came out at 9%, the inhibition at 1 µM is 44% and the inhibition at 3 µM was more than 99%.
Taken in the same sequence, the figures for `CCCCCOc1ccc(-c2ccc(OCC(=O)O)c(Oc3ccc(C(C)(C)C)cc3)c2)cc1` [Compound 440] were 0%, 3%, 96% and more than 99%.
For `CC(C)c1ccc(-c2ccc(OCC(=O)O)c(Oc3ccc(C(C)(C)C)cc3)c2)cc1` [Compound 441], in that order: 9%, 29%, 89% and 98%.
For `CC(C)(C)c1ccc(Oc2cc(-c3ccc(OC(F)(F)F)cc3)ccc2NCC(=O)O)cc1` [Compound 442], in that order: 1%, 4%, 83% and more than 99%.
On to `CCCCc1ccc(-c2ccc(OCC(=O)O)c(Oc3ccc(C(C)(C)C)cc3)c2)cc1` [Compound 443], for which the inhibition at 0.1 µM was determined as 7%, the inhibition at 0.3 µM worked out at 8%, the inhibition at 1 µM is 76% and the inhibition at 3 µM was more than 99%.
`Cc1ccc(-c2ccc(OCC(=O)O)c(Oc3ccc(C(C)(C)C)cc3)c2)cc1` [Compound 444]: the inhibition at 0.1 µM came out at 0%, the inhibition at 0.3 µM worked out at 0%, the inhibition at 1 µM came out at 11% and the inhibition at 3 µM turned out to be 96%.
As for `COc1ccc(-c2ccc(OCC(=O)O)c(Oc3ccc(C(C)(C)C)cc3)c2)cc1` [Compound 445], the inhibition at 0.1 µM was found to be 0%, the inhibition at 0.3 µM turned out to be 1%, the inhibition at 1 µM came to 12% and the inhibition at 3 µM turned out to be 50%.
`CC(C)(C)c1ccc(Oc2cc(-c3ccc(C(C)(C)C)cc3)ccc2OCC(=O)O)cc1` [Compound 446]: the inhibition at 0.1 µM was 3%, the inhibition at 0.3 µM is 13%, the inhibition at 1 µM came to 84% and the inhibition at 3 µM is more than 99%.
Taken in the same sequence, the figures for `CCC(CC)Oc1ccc(-c2ccc(OCC(=O)O)c(Oc3ccc(C(C)(C)C)cc3)c2)cc1` [Compound 447] were 4%, 11%, 89% and more than 99%.
For `CSc1ccc(-c2ccc(OCC(=O)O)c(Oc3ccc(C(C)(C)C)cc3)c2)cc1` [Compound 448], in that order: 4%, 11%, 39% and more than 99%.
For `CC(C)(C)c1ccc(Oc2cc(-c3ccc(OC(F)(F)F)cc3)ccc2/C=C\C(=O)O)cc1` [Compound 450], in that order: 9%, 11%, 58% and 98%.
As for `CC(C)(C)c1ccc(Oc2ccc(-c3ccc(C(C)(C)C)cc3)cc2OCC(=O)O)cc1` [Compound 453], the inhibition at 0.1 µM was 4%, the inhibition at 0.3 µM was found to be 15%, the inhibition at 1 µM was 96% and the inhibition at 3 µM was more than 99%.
Taken in the same sequence, the figures for `CCCCCOc1ccc(-c2ccc(Oc3ccc(C(C)(C)C)cc3)c(OCC(=O)O)c2)cc1` [Compound 454] were 11%, 17%, more than 99% and more than 99%.
For the compound `CC(C)(C)c1ccc(Oc2cc(-c3cc(Cl)ccc3Cl)ccc2OCC(=O)O)cc1` [Compound 455], the inhibition at 0.1 µM is 9%, the inhibition at 0.3 µM worked out at 20%, the inhibition at 1 µM worked out at 93% and the inhibition at 3 µM worked out at 99%.
For `CC(C)(C)c1ccc(Oc2cc(-c3ccccc3OC(F)(F)F)ccc2OCC(=O)O)cc1` [Compound 456], the inhibition at 0.1 µM was 7%, the inhibition at 0.3 µM was 13%, the inhibition at 1 µM amounted to 70% and the inhibition at 3 µM is 98%.
In the case of `CC(C)(C)c1ccc(Oc2cc(-c3ccc(Cl)cc3)ccc2OCC(=O)O)cc1` [Compound 457], the inhibition at 0.1 µM turned out to be 21%, the inhibition at 0.3 µM amounted to 18%, the inhibition at 1 µM turned out to be 63% and the inhibition at 3 µM was more than 99%.
For `CC(C)(C)c1ccc(Oc2cc(-c3ccc(F)cc3)ccc2OCC(=O)O)cc1` [Compound 459], in that order: 26%, 31%, 42% and 86%.
For `CC(C)Oc1ccc(-c2ccc(OCC(=O)O)c(Oc3ccc(C(C)(C)C)cc3)c2)cc1` [Compound 460], in that order: 1%, 8%, 63% and more than 99%.
As to `CCCCOc1ccc(Oc2cc(-c3ccc(OC(F)(F)F)cc3)ccc2CCC(=O)O)cc1` [Compound 461], the inhibition at 0.1 µM came to 1%, the inhibition at 0.3 µM was 26%, the inhibition at 1 µM turned out to be 95% and the inhibition at 3 µM was 98%.
Consider `CC(C)(C)c1ccc(Sc2cc(-c3ccc(OC(F)(F)F)cc3)ccc2/C=C/C(=O)O)cc1` [Compound 462], for which the inhibition at 0.1 µM was found to be 37%, the inhibition at 0.3 µM was determined as 94%, the inhibition at 1 µM amounted to 97% and the inhibition at 3 µM came to 95%.
For the compound `CC(C)(C)c1ccc(-c2ccc(OCC(=O)O)c(Oc3cccc(C(C)(C)C)c3)c2)cc1` [Compound 465], the inhibition at 0.1 µM is 10%, the inhibition at 0.3 µM was found to be 17%, the inhibition at 1 µM was found to be 87% and the inhibition at 3 µM is 98%.
For `CC(C)(C)c1ccc(Oc2cc(-c3ccccc3OC(F)(F)F)ccc2/C=C/C(=O)O)cc1` [Compound 466], in that order: 4%, 9%, 88% and more than 99%.
Taken in the same sequence, the figures for `CC(C)(C)c1ccc(Oc2cc(-c3ccccc3OC(F)(F)F)ccc2CCC(=O)O)cc1` [Compound 467] were 2%, 6%, 73% and more than 99%.
Regarding `CCCCOc1ccc(-c2ccc(OCC(=O)O)c(Oc3ccc(C(C)(C)C)cc3)c2)cc1` [Compound 468], the inhibition at 0.1 µM was 1%, the inhibition at 0.3 µM was determined as 5%, the inhibition at 1 µM came out at 86% and the inhibition at 3 µM stood at 97%.
Turning to `CC(C)(C)c1ccc(Oc2cc(-c3ccc4ccccc4c3)ccc2/C=C/C(=O)O)cc1` [Compound 469], the inhibition at 0.1 µM was found to be 4%, the inhibition at 0.3 µM was 22%, the inhibition at 1 µM amounted to 96% and the inhibition at 3 µM is more than 99%.
For `CC(C)(C)c1ccc(Oc2cc(-c3ccc4ccccc4c3)ccc2CCC(=O)O)cc1` [Compound 470], in that order: 3%, 16%, 87% and more than 99%.
Taken in the same sequence, the figures for `CC(C)(C)c1ccc(Oc2cc(-c3ccc(C#N)cc3)ccc2OCC(=O)O)cc1` [Compound 471] were 5%, 7%, 11% and 49%.
For `CCCCOc1cccc(Oc2cc(-c3ccc(OC(F)(F)F)cc3)ccc2CCC(=O)O)c1` [Compound 472], in that order: 15%, 14%, 71% and more than 99%.
Regarding `CC(C)(C)Oc1ccc(Oc2cc(-c3ccc(OC(F)(F)F)cc3)ccc2CCC(=O)O)cc1` [Compound 473], the inhibition at 0.1 µM was found to be 15%, the inhibition at 0.3 µM came out at 9%, the inhibition at 1 µM is 26% and the inhibition at 3 µM was more than 99%.
Taken in the same sequence, the figures for `O=C(O)CCc1ccc(-c2ccc(OC(F)(F)F)cc2)cc1Oc1ccc(C(F)(F)F)cc1` [Compound 474] were 2%, 11%, 43% and more than 99%.
Taken in the same sequence, the figures for `CCC(C)(C)c1ccc(Oc2cc(-c3ccc(OC(F)(F)F)cc3)ccc2CCC(=O)O)cc1` [Compound 475] were 4%, 27%, 94% and more than 99%.
For `O=C(O)CCc1ccc(-c2ccc(OC(F)(F)F)cc2)cc1Oc1ccc2ccccc2c1` [Compound 476], in that order: 0%, 3%, 65% and more than 99%.
